We go through 16 compounds from PubChem BioAssay (NCI).

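Method: 48-hour compound exposure of cells in 96-well plates, five concentrations, linear interpolation of endpoints. At the GI50, growth is halved. TGI is the concentration that stops growth completely.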

Among the test systems are ACHN renal; HCT-116 colon; HCT-15 colon; HT29 colon; IGROV1 ovarian; MOLT-4 leukemia; NCI-H226 lung; SNB-19 CNS; MDA-MB-435; BT-549 breast.
What all share (test): NCI-60 cell line screen, 48 h

Take `CCOC(=O)C[C@@]12CCCNC1(C)CCc1ccccc12` (stereo partly specified): the TGI in the experiment on ACHN renal, in the experiment on HCT-116 colon, with HCT-15 colon, with HT29 colon, in the experiment with IGROV1 ovarian and in the experiment with MOLT-4 leukemia was greater than 100 µM each time. Further, the TGI in the experiment on NCI-H226 lung and in the experiment with SNB-19 CNS was greater than 100 µM each time.
As to `O=C1C(c2ccccc2)=C(c2ccccc2)[C@H](c2ccccc2)[C@]1(Cc1nnn(-c2ccc([N+](=O)[O-])cc2)c1N1CCOCC1)c1ccccc1`, the TGI in the experiment with ACHN renal, in the experiment with HCT-116 colon, with HCT-15 colon, in the experiment with HT29 colon, with IGROV1 ovarian and with MOLT-4 leukemia was greater than 37.5 µM in each case. This compound yielded a TGI with SNB-19 CNS greater than 37.5 µM.
As to `Cc1nnc(N=Nc2c(O)[nH]c3ccccc23)n1N`, the TGI with ACHN renal, in the experiment with HCT-116 colon, with HCT-15 colon, with HT29 colon, in the experiment with IGROV1 ovarian and with MOLT-4 leukemia was greater than 100 µM in each case. The TGI with NCI-H226 lung and in the experiment with SNB-19 CNS was greater than 100 µM throughout.
As for `COc1cc(O)c(C(C)=O)c(O)c1`, the TGI in the experiment with ACHN renal, with HCT-116 colon, in the experiment with HCT-15 colon, with HT29 colon, in the experiment with IGROV1 ovarian and in the experiment on MDA-MB-435 was greater than 100 µM each time.
On to `COc1ccc(C2NCCc3c2[nH]c2ccccc32)cc1` (stereo unspecified), for which the TGI in the experiment on ACHN renal, with HCT-116 colon, with HCT-15 colon, in the experiment on HT29 colon, in the experiment on IGROV1 ovarian and with MOLT-4 leukemia was greater than 100 µM each time. The TGI in the experiment on NCI-H226 lung and with SNB-19 CNS was greater than 100 µM throughout.
As for `COC(=O)C1(F)C(=O)NC(=O)NC1OC` (stereo unspecified), the TGI is greater than 100 µM in the experiment on ACHN renal; 94.7 µM in the experiment with HCT-116 colon; greater than 100 µM with HCT-15 colon; greater than 100 µM in the experiment with HT29 colon; greater than 100 µM in the experiment on IGROV1 ovarian; greater than 100 µM in the experiment with MOLT-4 leukemia. For the same compound, the TGI in the experiment with NCI-H226 lung and in the experiment with SNB-19 CNS was greater than 100 µM each time.
As for `NS(=O)(=O)c1ccc(NC(=O)c2cccn3c(=O)c4ccccc4nc23)cc1`, the TGI in the experiment on ACHN renal, in the experiment with HCT-116 colon, with HT29 colon, with IGROV1 ovarian, with MOLT-4 leukemia and in the experiment on NCI-H226 lung was greater than 100 µM throughout. Further, in the experiment with SNB-19 CNS, the TGI is greater than 100 µM.
With `CC(=O)OCCC(O[Si](c1ccccc1)(c1ccccc1)C(C)(C)C)C(C)(C)O` (stereo unspecified), the TGI with ACHN renal is greater than 100 µM; in the experiment on HCT-116 colon, 31.2 µM; in the experiment on HCT-15 colon, greater than 100 µM; with HT29 colon it was 66.9 µM; in the experiment with IGROV1 ovarian, greater than 100 µM; in the experiment with MOLT-4 leukemia, 63 µM. Further, the TGI was 36 µM with NCI-H226 lung and greater than 100 µM in the experiment on SNB-19 CNS.
On to `C/C(=N/NC(=O)CC(=O)N(C(=O)c1ccccc1Cl)c1ccc(C)cc1)c1cc2ccccc2oc1=O`, for which the TGI in the experiment on ACHN renal, in the experiment with HCT-116 colon, in the experiment with HCT-15 colon, with HT29 colon, in the experiment with IGROV1 ovarian and in the experiment on NCI-H226 lung was greater than 100 µM in each case. This compound also displayed a TGI in the experiment on SNB-19 CNS greater than 100 µM.
Take `CC1(C)OC(COCCOCCCCCO)C(COCCOCCCCCO)O1` (stereo unspecified): the TGI in the experiment with ACHN renal, in the experiment with HCT-116 colon, in the experiment on HCT-15 colon, in the experiment on HT29 colon, with IGROV1 ovarian and in the experiment with MOLT-4 leukemia was greater than 100 µM throughout. Moreover, the TGI in the experiment with NCI-H226 lung and in the experiment with SNB-19 CNS was greater than 100 µM in each case.
As to `COc1ccc(NC(=O)c2sc3nc4c(cc3c2N)CCCC4)cc1`, the GI50 in the experiment on ACHN renal was 627 nM; in the experiment with BT-549 breast, 410 nM; in the experiment with HCT-116 colon, 355 nM; in the experiment on HCT-15 colon, 471 nM; in the experiment with HT29 colon it was 345 nM; in the experiment with IGROV1 ovarian it was 929 nM. The GI50 in the experiment with MOLT-4 leukemia was 442 nM; with SNB-19 CNS, 1570 nM. Also, the TGI was greater than 100 µM in the experiment on ACHN renal; 13.9 µM in the experiment on BT-549 breast; 11 µM in the experiment with HCT-116 colon; greater than 100 µM in the experiment on HCT-15 colon; 3.36 µM in the experiment on HT29 colon; greater than 100 µM with IGROV1 ovarian. The figures for the TGI in the experiment on MOLT-4 leukemia and in the experiment on SNB-19 CNS were 30.5 µM and greater than 100 µM, respectively.
Regarding `Cc1ccccc1NC(=O)C(=O)CC(=O)c1ccc([N+](=O)[O-])cc1`, the TGI in the experiment with ACHN renal, in the experiment on HCT-116 colon, in the experiment on HCT-15 colon, in the experiment on HT29 colon, in the experiment on IGROV1 ovarian and in the experiment on NCI-H226 lung was greater than 100 µM each time. The same compound yielded a TGI with SNB-19 CNS greater than 100 µM.
Take `CC1=C(C(=O)CC(=O)C(=O)NC2C3CC4CC(C3)CC2C4)Sc2ccccc2N1` (stereo unspecified): the TGI in the experiment on ACHN renal, in the experiment on HCT-116 colon, in the experiment on HCT-15 colon, with HT29 colon, with IGROV1 ovarian and with SNB-19 CNS was greater than 100 µM throughout.
Consider `C/C(=N/O)c1ccc2c(c1)C(=NO)c1cc(/C(C)=N/O)ccc1-2`, for which the TGI in the experiment with ACHN renal worked out at 20.8 µM; in the experiment with HCT-116 colon, 64.6 µM; in the experiment on HCT-15 colon it was 36.3 µM; in the experiment with HT29 colon, 30 µM; in the experiment on IGROV1 ovarian, 49.2 µM; in the experiment with MOLT-4 leukemia, 13.2 µM. Further, the TGI in the experiment on NCI-H226 lung and with SNB-19 CNS was 26.8 µM throughout.
`COc1cc2cccc(N=Cc3c(Br)ccc(OC)c3OC(C)C)c2cc1OC`: the TGI with ACHN renal is greater than 100 µM; with HCT-116 colon, 96 µM; in the experiment with HT29 colon it was 93.7 µM; with IGROV1 ovarian it was greater than 100 µM; in the experiment with MOLT-4 leukemia it was greater than 100 µM; in the experiment on SNB-19 CNS, greater than 100 µM.
In the case of `C=CC1=CC(C)C[C@]1(O)C(=O)OC` (stereo partly specified), the GI50 with ACHN renal was greater than 100000 nM; in the experiment on HCT-116 colon, greater than 100000 nM; in the experiment with HT29 colon it was greater than 100000 nM; with IGROV1 ovarian, greater than 100000 nM; in the experiment with MOLT-4 leukemia it was greater than 100000 nM; with NCI-H226 lung, greater than 100 µM. In addition, the GI50 in the experiment on SNB-19 CNS is greater than 100000 nM. The compound also displayed a TGI in the experiment with HCT-15 colon greater than 100 µM.
